Results published in PMC5851644, “Development of Potent Inhibitors of Receptor Tyrosine Kinases by Ligand-Based Drug Design and Target-Biased Phenotypic Screening” (Journal of Medicinal Chemistry, 2018).

Columns and labels:
AKT = test: Kinase IC50, 33P radioisotope assay (Reaction Biology); format: biochemical; conditions: recombinant kinase, 10 μM ATP
Protocol: The panel, which included the three members of the TAM family, was selected based on the selectivity profile frequently found for other AXL inhibitors.[9] Kinase inhibition studies were performed by Reaction Biology Corporation, USA, by measuring ^33P incorporation on the corresponding kinase substrate relative to DMSO.
To understand how these structural changes had affected the kinase selectivity of the new compounds, 12a–d were screened against the 12-member panel of kinases used for previous hits. As before, kinase inhibition screenings were performed using radioisotope based methods by Reaction Biology Corporation.
(§1) 6.2. Dose response cell viability assay
(§2) with 95 µl of fresh medium.
(§3) a separate 96-well intermediate plate.
(§4) containing cells. […] After 5 d, PrestoBlue™ cell
(§5) 6.3. Kinase screening assay

BT474 cells (AXL–) = test: Dose response cell viability assay (PrestoBlue, day 5); format: cell-based; conditions: Homo sapiens, BT-474, 120 h, PrestoBlue at day 5
[1] = system: AXL-overexpressing mouse breast cancer cells (AXL+); test: as above; format: cell-based; conditions: PrestoBlue at day 5
MOLM-13 cells = test: as above; format: cell-based; conditions: Homo sapiens, MOLM-13, 120 h; PrestoBlue at day 5
Protocol: as §1, §2, §3, §4, §5

MV4-11 cells = test: as above; format: cell-based; conditions: Homo sapiens, MV4-11, 120 h; PrestoBlue at day 5
Protocol: as §1, §2, §3, §4, §5

AXL = target: T1, AXL (Homo sapiens, UniProt P30530); conditions: cited from earlier work
T1 construct: purchased Reaction Biology Corporation
T1 sequence (P30530 26-894): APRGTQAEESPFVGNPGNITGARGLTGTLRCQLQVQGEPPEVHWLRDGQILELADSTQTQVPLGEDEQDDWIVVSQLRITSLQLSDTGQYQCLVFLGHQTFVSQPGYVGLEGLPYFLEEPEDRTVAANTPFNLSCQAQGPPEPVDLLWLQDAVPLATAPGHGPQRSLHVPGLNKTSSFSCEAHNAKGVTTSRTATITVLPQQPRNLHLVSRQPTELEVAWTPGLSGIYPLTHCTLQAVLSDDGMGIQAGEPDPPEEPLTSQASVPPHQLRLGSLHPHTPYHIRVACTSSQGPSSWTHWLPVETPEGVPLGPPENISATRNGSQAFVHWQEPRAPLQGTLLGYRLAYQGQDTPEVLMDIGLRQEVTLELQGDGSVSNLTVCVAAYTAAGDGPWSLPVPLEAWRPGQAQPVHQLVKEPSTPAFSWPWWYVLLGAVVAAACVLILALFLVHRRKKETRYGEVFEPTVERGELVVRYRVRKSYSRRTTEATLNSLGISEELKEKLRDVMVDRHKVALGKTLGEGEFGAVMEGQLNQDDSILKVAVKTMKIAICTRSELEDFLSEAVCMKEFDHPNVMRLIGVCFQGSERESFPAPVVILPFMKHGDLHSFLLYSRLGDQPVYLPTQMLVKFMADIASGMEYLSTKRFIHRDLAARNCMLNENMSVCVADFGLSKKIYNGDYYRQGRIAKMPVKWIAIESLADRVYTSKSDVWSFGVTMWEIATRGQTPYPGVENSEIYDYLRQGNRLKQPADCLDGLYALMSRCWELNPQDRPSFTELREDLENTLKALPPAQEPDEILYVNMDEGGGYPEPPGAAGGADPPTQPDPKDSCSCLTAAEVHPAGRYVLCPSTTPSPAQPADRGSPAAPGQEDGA

Row | IC50 (AKT) | EC50 (BT474 cells (AXL–)) | EC50 ([1]; Mus musculus, 120 h) | Compound | further results
1 | > 10 µM | 6.49 µM | 1.83 µM | CNc1ncc2c(-c3ccc(N4CCNCC4)nc3)nn(Cc3cn(-c4ccsc4C(=O)OC)nn3)c2n1 [Compound 10d] | 
2 |  | 24.7 µM | 16.3 µM | CNc1ncc2c(-c3cccc(C(N)=O)c3)nn(CC3CCCC3)c2n1 [Compound 7e] | 
3 | > 10 µM |  |  | CNc1ncc2c(-c3ccc(N4CCN(C(=O)C(C)(C)C)CC4)nc3)nn(CC3CCCC3)c2n1 [Compound 13d] | EC50 (MOLM-13 cells): 1.3 µM; EC50 (MV4-11 cells): 1.44 µM
4 |  | 24 µM | 14.1 µM | CNc1ncc2c(-c3ccc(OC)cc3)nn(CC3CCCC3)c2n1 [Compound 7a] | 
5 | > 10 µM | 13.1 µM |  | CNc1ncc2c(-c3ccc(OC)cc3)nn(CC3OCCO3)c2n1 [Compound 7h] | EC50 [1]: 5.02 µM
6 | > 10 µM | 32.3 µM | 39.7 µM | CNc1ncc2c(-c3ccc(N4CCNCC4)cc3)nn(Cc3cn(Cc4ccccc4)nn3)c2n1 [Compound 12a] | 
7 | > 10 µM |  |  | CCN1CCN(c2ccc(-c3nn(CC4CCCC4)c4nc(NC)ncc34)cn2)CC1 [Compound 13c] | EC50 (MOLM-13 cells): 0.94 µM; EC50 (MV4-11 cells): 3.49 µM
8 | > 10 µM | 3.62 µM | 1.47 µM | CNc1ncc2c(-c3ccc(N4CCNCC4)nc3)nn(Cc3cn(Cc4ccccc4)nn3)c2n1 [Compound 10a] | 
9 | > 10 µM |  |  | Nc1nc(Nc2ccc3c(c2)CC[C@@H](N2CCCC2)CC3)nn1-c1cc2c(nn1)-c1ccccc1CCC2 [BGB324, reference compound] | 
10 | > 10 µM | 25.7 µM | 6.91 µM | CNc1ncc2c(-c3ccc(N4CCN(C)CC4)nc3)nn(Cc3cn(Cc4ccccc4)nn3)c2n1 [Compound 12b] | 
11 |  | 26 µM | 14.1 µM | CNc1ncc2c(-c3ccc(OC)c(OC)c3)nn(CC3CCCC3)c2n1 [Compound 7b] | 
12 |  | > 100 µM | > 100 µM | CCN1CCN(c2ccc(-c3nn(Cc4cn(Cc5ccccc5)nn4)c4nc(NC)ncc34)cn2)CC1 [Compound 12c] | 
13 |  |  |  | COc1cc2c(Oc3ccc(NC(=O)C4(C(=O)Nc5ccc(F)cc5)CC4)cc3F)ccnc2cc1OCCCN1CCOCC1 [foretinib] | reported to inhibit AXL at (AXL): 11 nM
14 |  | 18.4 µM | 34.1 µM | CNc1ncc2c(-c3ccc(N4CCNCC4)nc3)nn(Cc3cn(C4CCCC4O)nn3)c2n1 (centres unmarked) [Compound 10b] | 
15 |  | 60 µM | 65.8 µM | CNc1ncc2c(-c3ccc(F)cc3)nn(CC3OCCO3)c2n1 [Compound 7i] | 
16 | > 10 µM | 20.5 µM |  | CNc1ncc2c(-c3ccc(N4CCNCC4)nc3)nn(CC3OCCO3)c2n1 [Compound 7g] | EC50 [1]: 10.3 µM
17 |  | > 100 µM | > 100 µM | CNc1ccc(-c2nn(Cc3cn(Cc4ccccc4)nn3)c3nc(NC)ncc23)cn1 [Compound 12f] | EC50 (AXL+ cells) [1]: completely inactive
18 | > 10 µM |  |  | CNc1ncc2c(-c3ccc(N4CCN(C)CC4)nc3)nn(CC3CCCC3)c2n1 [Compound 13b] | EC50 (MOLM-13 cells): 0.04 µM; EC50 (MV4-11 cells): 0.49 µM
19 |  | 16.8 µM | 3.7 µM | CNc1ncc2c(-c3ccc(N4CCNCC4)nc3)nn(Cc3cn(-c4ccc(OC)cc4)nn3)c2n1 [Compound 10f] | 
20 | > 10 µM |  |  | CNc1ncc2c(-c3ccc(N4CCNCC4)nc3)nn(CC3CCCC3)c2n1 [Compound 7f] | 
21 | > 10 µM | 12.4 µM | 9.16 µM | CNc1ncc2c(-c3ccc(N4CCN(C(=O)C(C)(C)C)CC4)nc3)nn(Cc3cn(Cc4ccccc4)nn3)c2n1 [Compound 12d] | 
